Measurements reported in patent publication US20080167461A1, “Process for Preparing 3,6-Dichloropyridazine-1-Oxide” (SANKYO AGRO COMPANY, LIMITED, priority 2005, published 2008).

Legend:
rice plants = assay: Chemical damage to transplanted rice plants (flooding soil treatment, pot test); format: in vivo
Text: (§1) Rice paddy soil was filled into a 1/10,000a pot, followed by mixing seeds of dormancy awakening Echinochloa oryzicola and Scirpus joncoides, and annual broadleaf weeds (Lindernia spp. and Rotala indica) in 1 cm of the surface layer of soil. In addition, Cyperus serotinus tubers subjected to accelerated germination were planted, followed by transplanting rice seedlings at the 2.2 leaf stage and growing under flooding conditions in a greenhouse. Three days after transplant, a predetermined dose of the wettable powder prepared according to Reference Example 2 was diluted with water, the soil was treated with a spraying solution thereof under flooding conditions and herbicidal effects and chemical damage to the transplanted rice plants were measured according to the evaluation criteria shown below 25 days after treatment.
(§2) 0: Growth inhibition rate 0 to 10%
(§3) 1: Growth inhibition rate 11 to 30%
(§4) 2: Growth inhibition rate 31 to 50%
(§5) 3: Growth inhibition rate 51 to 70%
(§6) 4: Growth inhibition rate 71 to 90%
(§7) 5: Growth inhibition rate 91 to 100%

[1] = test system: annual broadleaf weeds (Lindernia spp. and Rotala indica); assay: Treatment prior to germination of rice paddy weeds (flooding soil treatment, pot test); format: in vivo; details: dose 10 g/a; wettable powder diluted with water, treated 3 days after transplant under flooding; evaluated 25 days after treatment
Text: as §1, §2, §3, §4, §5, §6, §7

Echinochloa oryzicola = assay: as above; format: in vivo; details: dose 10 g/a; wettable powder diluted with water, treated 3 days after transplant under flooding; evaluated 25 days after treatment
Text: as §1, §2, §3, §4, §5, §6, §7

Scirpus joncoides = assay: as above; format: in vivo; details: dose 10 g/a; wettable powder diluted with water, treated 3 days after transplant under flooding; evaluated 25 days after treatment
Text: as §1, §2, §3, §4, §5, §6, §7

Cyperus serotinus = assay: as above; format: in vivo; details: dose 10 g/a; wettable powder diluted with water, treated 3 days after transplant under flooding; evaluated 25 days after treatment
Text: as §1, §2, §3, §4, §5, §6, §7

[2] = test system: dominant weeds of rice paddies; assay: Herbicidal activity in rice paddies, flooding soil treatment before or after weed germination (general statement); format: in vivo
Text: The compound synthesized in Reference Example 1 has herbicidal action, and can be used as a herbicide.

**Q.** With Cc1cccc(C)c1Oc1nnc(Cl)cc1O [Reference Example 1, 6-Chloro-3-(2,6-dimethylphenoxy)-4-pyridazinol] as the compound, how does the melting point read?
**A.** 214 to 215 °C

**Q.** And the “chemical toxicity with respect to rice” value (rice plants; flooding soil treatment before or after weed germination, general statement)?
**A.** without demonstrating problems in terms of chemical toxicity

**Q.** What about the “activity against rice plants (chemical damage grade)” value (rice plants; transplanted rice seedlings (2.2 leaf stage), dose 10 g/a, evaluated 25 days after treatment) of the same compound?
**A.** 0 (Growth inhibition rate 0 to 10%)

**Q.** What about the “herbicidal activity (growth inhibition grade) against broadleaf weeds” value [1] of the same compound?
**A.** 5 (Growth inhibition rate 91 to 100%)

**Q.** What about the “herbicidal activity (growth inhibition grade) against Echinochloa oryzicola” value (Echinochloa oryzicola) of the same compound?
**A.** 2 (Growth inhibition rate 31 to 50%)

**Q.** What about the “herbicidal activity (growth inhibition grade) against Scirpus joncoides” value (Scirpus joncoides) of the same compound?
**A.** 5 (Growth inhibition rate 91 to 100%)

**Q.** What about the “herbicidal activity (growth inhibition grade) against Cyperus serotinus” value (Cyperus serotinus) of the same compound?
**A.** 5 (Growth inhibition rate 91 to 100%)

**Q.** What about the “herbicidal activity against dominant weeds of rice paddies” value [2] of the same compound?
**A.** demonstrates herbicidal activity
